# Experimental data from patent publication US7119082B2, “11β-long-chain-substituted 19-nor-17α-pregna-1,3,5(10)-trien-17β-ols with a 21,16α-lactone ring” (priority 2002, dated 2006).
# Where two headings read alike, the source gives them in different places.
# Assays:
# [1] = tested on: hER β; experiment: Relative binding affinity to hER β (cited from Kuiper et al.); set-up: species or system human; settings: Table 2; quotient of the cited RBA values
# From the text: In this case, it is assumed that ERβ predominates in the rat prostate over ERα, and ERα predominates in the rat uterus over ERβ.
# [2] = tested on: hER β; settings: Table 2; cited from Kuiper et al. (1996), Endocrinology 138: 863-870; cited from earlier work
# [3] = tested on: estrogen receptor from the rat prostate; experiment: Estrogen receptor binding, rat prostate cytosol, competition with 3H-estradiol; settings: for Rat Prostate ER (RBA): Table 1, 3H-estradiol as ligand
# [4] = tested on: estrogen receptor from the rat uterus; experiment: Estrogen receptor binding, rat uterus cytosol, competition with 3H-estradiol
# [5] = molecular target: T1, estrogen receptor from the rat uterus (Rattus norvegicus, UniProt P06211); experiment: as above
# T1 construct: The preparation of rat uterus cytosol as well as the receptor test with the estrogen-receptor-containing cytosol; from tissue; host or cells: rat uterus cytosol
# T1 sequence (P06211 1-600): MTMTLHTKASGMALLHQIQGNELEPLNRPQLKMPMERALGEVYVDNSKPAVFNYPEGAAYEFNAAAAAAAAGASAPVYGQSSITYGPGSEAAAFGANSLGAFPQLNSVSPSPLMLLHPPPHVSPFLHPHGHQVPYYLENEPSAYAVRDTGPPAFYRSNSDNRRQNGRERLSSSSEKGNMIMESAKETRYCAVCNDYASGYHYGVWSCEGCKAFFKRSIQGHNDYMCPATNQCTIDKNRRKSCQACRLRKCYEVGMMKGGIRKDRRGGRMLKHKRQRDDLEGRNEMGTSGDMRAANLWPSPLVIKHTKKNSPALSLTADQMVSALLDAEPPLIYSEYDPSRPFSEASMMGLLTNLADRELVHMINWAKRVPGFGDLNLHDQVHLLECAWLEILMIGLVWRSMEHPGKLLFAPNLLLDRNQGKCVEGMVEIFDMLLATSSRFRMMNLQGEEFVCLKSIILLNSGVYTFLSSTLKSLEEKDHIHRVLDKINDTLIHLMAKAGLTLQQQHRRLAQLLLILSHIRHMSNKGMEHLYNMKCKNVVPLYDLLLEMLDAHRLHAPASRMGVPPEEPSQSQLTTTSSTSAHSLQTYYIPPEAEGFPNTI
# [6] = tested on: MCF-7 breast cancer cells; experiment: Cell proliferation assay, estradiol-stimulated MCF-7, crystal violet; assay type: cell-based; settings: Homo sapiens, MCF7, 168 h; concentration 10^-5 M; 7 days; FIG. 1
# [7] = relative binding affinity, estradiol = 100
structure (smiles),measurement,setting,value
C[C@]12CC[C@H](O)CC1=CCC1C2CC[C@@]2(C)C1CC[C@@H]2O (stereo partly shown) [5-Andros-ten-diol],ERβ/ERα,[1],3
same,hER β RBA,[2],17
same,Rat prost. ER(RBA),[3],5
same,Uterus-ER/Prostata-ER,"[4]; Table 2, ratio of rat ER RBA values as headed",50
same,Rat uterus ER(RBA),[5],0.1
"CCCCCC[C@H]1C[C@@]2(C)C(C[C@H]3OC(=O)C[C@]32O)C2CCc3cc(O)ccc3C21 (stereo partly drawn) [Compound 1, 3,17β-Dihydroxy-11β-hexyl-19-nor-17α-pregna-1,3,5(10)-triene-21,16α-lactone]",Rat Prostate ER (RBA),[3]; [7],1.2
same,Uterus-ER/Prostate-ER,"[4]; Table 1, ratio of RBA rat uterus ER to rat prostate ER",22
same,"Binding affinity, rat uterus ER compared with rat prostate ER (in words)",[4]; see Table 1,higher binding affinity to the estrogen receptor from the rat uterus than to the estrogen receptor from the rat prostate
same,Rat uterus ER(RBA),"[5]; Table 1, relative binding affinity, estradiol = 100, 3H-estradiol as ligand",26.2
same,inhibition at 10 µM,[6],100%
C[C@]12CCC3c4ccc(O)cc4CCC3C1CC[C@@H]2O (stereo partly shown) [Estradiol],Rat Prostate ER (RBA),[3]; [7],100
same,Rat prost. ER(RBA),"[3]; Table 2, relative binding affinity, estradiol = 100",100
C[C@]12CC[C@@H]3c4ccc(O)cc4CC[C@H]3[C@@H]1C[C@@H](O)[C@@H]2O [Estriol],hER β RBA,[2],21
